Measurements: ChEMBL document CHEMBL1158310, “Cytotoxic Degradation Product of Physostigmine” (1996)
In brackets after ≈: the same amount, converted by molar mass. Activity calls are given as the source filed them. The calls are words filed in the database; no cut-off is given here.

Legend:
[1] = Cytotoxicity against human KBVIN cells in presence of vinblastine; type: functional; conditions: read-out: ED50 (the source's name)
ZR-75-1 = assay: Cytotoxicity against human ZR-75-1 cells; type: functional, cell-based
[2] = Cytotoxicity against human KBVIN cells in absence of vinblastine; type: functional; conditions: read-out: ED50 (the source's name)
[3] = Antimitotic activity in rat ASK cells assessed as astrocyte generation at […] by light microscopy; type: functional; conditions: read-out: ED50 (the source's name)
LNCaP = assay: Cytotoxicity against human LNCAP cells; type: functional; conditions: read-out: ED50 (the source's name)
KB = assay: Cytotoxicity against human KB cells; type: functional; conditions: read-out: ED50 (the source's name)
Lu1 = assay: Cytotoxicity against human Lu1 cells; type: functional; conditions: read-out: ED50 (the source's name)

With `CCNC1=CC2=N[C@H]3N(C)CC[C@@]3(C)C2=CC1=O` the EC50 [1] was 0.6 µg/mL, the Activity (ZR-75-1) was “inactive” and the EC50 [2] was 0.8 µg/mL (≈ 3.26 µM). For the same compound, the EC50 [3] was 1.9 µg/mL (≈ 7.74 µM), the EC50 (LNCaP) was 0.3 µg/mL (≈ 1.22 µM) and the EC50 (KB) was 0.2 µg/mL (≈ 0.815 µM). It also gave an EC50 (Lu1) of 1.5 µg/mL (≈ 6.11 µM).
With `CN1CC[C@@]2(C)C3=CC(=O)C(=O)C=C3N(C)[C@@H]12` [RUBRESERINE] the EC50 [1] was over 20 µg/mL, the Activity (ZR-75-1) was “Active” and the EC50 [2] was 16.8 µg/mL (≈ 72.3 µM). The EC50 [3] was over 20 µg/mL, the EC50 (LNCaP) was 13.1 µg/mL (≈ 56.4 µM) and the EC50 (KB) was over 20 µg/mL. It also gave an EC50 (Lu1) of over 20 µg/mL.
